In patent US11497752B2, “Compounds and uses thereof” (Foghorn Therapeutics Inc., priority 2018, dated 2022):

Assays:
BRM = BRM (Homo sapiens, UniProt P51531); assay: ATPase catalytic activity of BRM (ADP-Glo in vitro biochemical assay)
BRG-1 = BRG-1 (Homo sapiens, UniProt P51532); assay: ATPase catalytic activity of BRG-1 (ADP-Glo in vitro biochemical assay); details: for BRG1 Max % Inhibition: Table 5
Sequence of BRG-1 (P51532 whole entry): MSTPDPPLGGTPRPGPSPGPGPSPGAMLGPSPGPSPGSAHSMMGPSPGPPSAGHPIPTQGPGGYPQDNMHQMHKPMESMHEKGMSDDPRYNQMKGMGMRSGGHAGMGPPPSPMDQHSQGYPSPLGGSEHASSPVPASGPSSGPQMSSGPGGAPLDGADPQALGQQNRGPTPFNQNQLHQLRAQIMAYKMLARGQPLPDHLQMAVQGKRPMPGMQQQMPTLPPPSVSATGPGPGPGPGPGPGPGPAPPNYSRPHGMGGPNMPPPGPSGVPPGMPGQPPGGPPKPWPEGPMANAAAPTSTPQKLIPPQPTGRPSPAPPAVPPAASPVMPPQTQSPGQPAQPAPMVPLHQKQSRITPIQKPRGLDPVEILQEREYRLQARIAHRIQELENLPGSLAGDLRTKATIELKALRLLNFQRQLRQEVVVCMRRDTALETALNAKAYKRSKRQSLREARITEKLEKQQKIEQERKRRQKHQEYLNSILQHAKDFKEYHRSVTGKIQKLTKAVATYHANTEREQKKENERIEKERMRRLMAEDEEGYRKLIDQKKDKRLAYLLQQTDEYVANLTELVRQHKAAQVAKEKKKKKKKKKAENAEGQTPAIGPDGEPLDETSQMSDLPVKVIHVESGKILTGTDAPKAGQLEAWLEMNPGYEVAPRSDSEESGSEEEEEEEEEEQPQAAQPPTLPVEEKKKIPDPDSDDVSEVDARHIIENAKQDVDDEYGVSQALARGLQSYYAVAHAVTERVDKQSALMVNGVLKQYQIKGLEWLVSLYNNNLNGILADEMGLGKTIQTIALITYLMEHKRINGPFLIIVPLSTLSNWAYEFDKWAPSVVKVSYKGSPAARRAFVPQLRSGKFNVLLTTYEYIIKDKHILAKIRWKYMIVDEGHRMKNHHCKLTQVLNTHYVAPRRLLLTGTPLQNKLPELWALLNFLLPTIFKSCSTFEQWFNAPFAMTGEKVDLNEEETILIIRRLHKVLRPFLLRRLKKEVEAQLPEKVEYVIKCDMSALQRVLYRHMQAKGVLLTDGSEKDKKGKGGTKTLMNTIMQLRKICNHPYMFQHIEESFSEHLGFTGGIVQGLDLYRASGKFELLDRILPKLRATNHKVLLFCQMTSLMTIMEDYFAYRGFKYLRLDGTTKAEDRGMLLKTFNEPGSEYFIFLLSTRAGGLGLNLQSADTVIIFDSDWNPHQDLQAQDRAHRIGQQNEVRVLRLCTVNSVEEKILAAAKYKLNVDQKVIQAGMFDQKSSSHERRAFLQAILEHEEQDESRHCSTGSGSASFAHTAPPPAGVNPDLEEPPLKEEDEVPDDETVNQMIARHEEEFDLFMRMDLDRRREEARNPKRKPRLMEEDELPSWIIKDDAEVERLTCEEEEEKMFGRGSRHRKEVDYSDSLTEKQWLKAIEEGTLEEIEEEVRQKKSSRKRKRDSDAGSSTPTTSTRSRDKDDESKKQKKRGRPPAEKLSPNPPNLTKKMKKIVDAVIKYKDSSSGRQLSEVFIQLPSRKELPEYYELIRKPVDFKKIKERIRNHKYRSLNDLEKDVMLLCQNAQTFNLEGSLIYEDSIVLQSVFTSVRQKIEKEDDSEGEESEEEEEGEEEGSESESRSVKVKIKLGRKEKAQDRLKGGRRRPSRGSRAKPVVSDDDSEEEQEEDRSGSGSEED

Sequence of BRM (P51531 whole entry): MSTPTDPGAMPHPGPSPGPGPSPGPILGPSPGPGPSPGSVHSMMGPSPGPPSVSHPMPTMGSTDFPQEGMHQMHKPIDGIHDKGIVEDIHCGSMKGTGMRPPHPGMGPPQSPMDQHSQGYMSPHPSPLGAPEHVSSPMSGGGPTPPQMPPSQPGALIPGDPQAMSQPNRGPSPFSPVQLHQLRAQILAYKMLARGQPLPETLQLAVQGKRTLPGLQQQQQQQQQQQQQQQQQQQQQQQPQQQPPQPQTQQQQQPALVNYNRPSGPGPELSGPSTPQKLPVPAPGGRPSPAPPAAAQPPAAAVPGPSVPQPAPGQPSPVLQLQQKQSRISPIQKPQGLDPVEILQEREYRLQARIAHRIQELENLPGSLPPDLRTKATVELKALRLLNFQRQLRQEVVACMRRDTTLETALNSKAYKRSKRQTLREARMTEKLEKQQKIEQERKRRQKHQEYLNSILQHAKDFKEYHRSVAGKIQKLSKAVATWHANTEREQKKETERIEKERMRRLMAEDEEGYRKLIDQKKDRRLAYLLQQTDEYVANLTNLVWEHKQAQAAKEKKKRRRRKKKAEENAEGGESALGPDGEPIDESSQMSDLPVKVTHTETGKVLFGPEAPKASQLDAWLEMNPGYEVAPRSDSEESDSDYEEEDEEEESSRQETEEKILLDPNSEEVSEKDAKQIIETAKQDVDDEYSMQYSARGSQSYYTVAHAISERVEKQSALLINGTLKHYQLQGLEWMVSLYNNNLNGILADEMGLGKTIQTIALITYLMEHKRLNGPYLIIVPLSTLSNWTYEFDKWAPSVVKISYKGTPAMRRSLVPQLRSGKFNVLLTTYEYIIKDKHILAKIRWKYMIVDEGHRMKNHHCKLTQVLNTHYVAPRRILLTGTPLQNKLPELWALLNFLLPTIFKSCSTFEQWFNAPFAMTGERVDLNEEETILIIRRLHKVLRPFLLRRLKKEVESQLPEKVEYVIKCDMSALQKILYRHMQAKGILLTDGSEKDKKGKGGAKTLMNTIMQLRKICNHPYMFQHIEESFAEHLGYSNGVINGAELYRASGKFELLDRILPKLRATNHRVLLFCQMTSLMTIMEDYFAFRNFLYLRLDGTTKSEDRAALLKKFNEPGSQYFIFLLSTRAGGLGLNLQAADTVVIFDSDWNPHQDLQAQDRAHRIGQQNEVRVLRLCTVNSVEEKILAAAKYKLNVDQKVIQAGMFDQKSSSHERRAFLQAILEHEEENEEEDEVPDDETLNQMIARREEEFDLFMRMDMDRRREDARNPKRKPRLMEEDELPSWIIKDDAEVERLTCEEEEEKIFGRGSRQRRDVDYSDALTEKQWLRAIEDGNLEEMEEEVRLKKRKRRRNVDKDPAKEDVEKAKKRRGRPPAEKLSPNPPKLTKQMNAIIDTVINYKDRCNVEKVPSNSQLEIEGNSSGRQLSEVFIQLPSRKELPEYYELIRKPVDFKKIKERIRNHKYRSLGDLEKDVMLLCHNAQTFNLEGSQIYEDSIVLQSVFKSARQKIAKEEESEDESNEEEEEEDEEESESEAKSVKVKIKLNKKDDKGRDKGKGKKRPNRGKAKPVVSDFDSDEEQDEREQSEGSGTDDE

Row | Structure (SMILES) | IC50 (BRM) [µM] | BRM Max % Inhibition (BRM; Table 5) [%] | IC50 (BRG-1) [µM] | BRG1 Max % Inhibition (BRG-1) [%] | BRM Max % Inhibition (BRM; Table 6) [%]
1 | Cc1cccc(-c2csc(NC(=O)CNC(=O)c3cccc(S(=O)(=O)N(C)C)c3)n2)c1 [Compound 1, 3-(dimethylsulfamoyl)-N-[2-[[4-(m-tolyl)thiazol-2-yl]amino]-2-oxo-ethyl]benzamide] | 1 to 10 | >95 | 1 to 10 | >70 | 
2 | CSCC[C@H](NC(=O)c1ccc(C)c(S(C)(=O)=O)c1)C(=O)Nc1nc(-c2ccccc2)cs1 [Compound 2, 4-methyl-N-[(1S)-3-methylsulfanyl-1-[(4-phenylthiazol-2-yl)carbamoyl]propyl]-3-methylsulfonyl-benzamide] | < 1 | >95 | 1 to 10 | >95 | 
3 | CNC(=O)c1cccc(-c2csc(NC(=O)CNC(=O)c3cccc(S(=O)(=O)N(C)C)c3)n2)c1 [Compound 4, 3-[2-[[2-[[3-(dimethylsulfamoyl)benzoyl]amino]acetyl]amino]thiazol-4-yl]-N-methyl-benzamide] | 1 to 10 | >90 | > 10 | >70 | 
4 | COC(=O)c1cccc(-c2csc(NC(=O)CNC(=O)c3cccc(S(=O)(=O)N(C)C)c3)n2)c1 [Compound 9, methyl 3-[2-[[2-[[3-(dimethylsulfamoyl)benzoyl]amino]acetyl]amino]thiazol-4-yl]benzoate] | < 1 | >90 | < 1 | >60 | 
5 | CN(C)S(=O)(=O)c1cccc(C(=O)NCC(=O)Nc2nc(-c3ccccc3)cs2)c1 [Compound 13, 3-(dimethylsulfamoyl)-N-[2-oxo-2-[(4-phenylthiazol-2-yl)amino]ethyl]benzamide] | 1 to 10 | >80 | 1 to 10 | >30 | 
6 | CSCC[C@H](NC(=O)c1cccc(S(=O)(=O)C(C)C)c1)C(=O)Nc1nc(-c2ccccc2)cs1 [Compound 14, (S)-3-(isopropylsulfonyl)-N-(4-(methylthio)-1-oxo-1-((4-phenylthiazol-2-yl)amino)butan-2-yl)benzamide] | 1 to 10 | >80 | > 10 | >60 | 
7 | CN(C)S(=O)(=O)c1cccc(C(=O)NCC(=O)Nc2nc(-c3ccc4c(c3)OCCO4)cs2)c1 [Compound 15, N-(2-((4-(2,3-dihydrobenzo[b][1,4]dioxin-6-yl)thiazol-2-yl)amino)-2-oxoethyl)-3-(N,N-dimethylsulfamoyl)benzamide] | 1 to 10 | >80 | 1 to 10 | >60 | 
8 | Cc1ccccc1-c1csc(NC(=O)CNC(=O)c2cccc(S(=O)(=O)N(C)C)c2)n1 [Compound 16, 3-(dimethylsulfamoyl)-N-[2-[[4-(o-tolyl)thiazol-2-yl]amino]-2-oxo-ethyl]benzamide] | 1 to 10 | >80 | > 10 | >60 | 
9 | CSCC[C@@H](NC(=O)c1ccc(N)cc1)C(=O)Nc1nc(-c2cccc(-c3ccncc3)c2)cs1 [Compound 155, (R)-4-amino-N-(4-(methylthio)-1-oxo-1-((4-(3-(pyridin-4-yl)phenyl)thiazol-2-yl)amino)butan-2-yl)benzamide] |  |  |  |  | >80
10 | Cc1cc(-c2cccc(-c3csc(NC(=O)CNC(=O)c4ccc(N)cc4)n3)c2)on1 [Compound 231, 4-amino-N-[2-[[4-[3-(3-methylisoxazol-5-yl)phenyl]thiazol-2-yl]amino]-2-oxo-ethyl]benzamide] | 0.1 to 1 |  |  |  | 

Now from value to compound, other results behind:

Row | IC50 (BRM) [µM] | BRM Max % Inhibition (BRM; Table 5) [%] | IC50 (BRG-1) [µM] | BRG1 Max % Inhibition (BRG-1) [%] | Structure (SMILES) | BRM Max % Inhibition (BRM; Table 6) [%]
11 | 1 to 10 | >95 | 1 to 10 | >90 | CSCC[C@H](NC(=O)c1cccc(S(C)(=O)=O)c1)C(=O)Nc1nc(-c2ccccc2)cs1 [Compound 3, (S)-3-(methylsulfonyl)-N-(4-(methylthio)-1-oxo-1-((4-phenylthiazol-2-yl)amino)butan-2-yl)benzamide] | 
12 | > 10 | >90 | > 10 | >70 | CC(=O)NCc1cccc(-c2csc(NC(=O)CNC(=O)c3cccc(S(=O)(=O)N(C)C)c3)n2)c1 [Compound 5, N-[2-[[4-[3-(acetamidomethyl)phenyl]thiazol-2-yl]amino]-2-oxo-ethyl]-3-(dimethylsulfamoyl)benzamide] | 
13 | 1 to 10 | >90 | > 10 | >60 | CC(C)S(=O)(=O)c1cccc(C(=O)NCC(=O)Nc2nc(-c3ccccc3)cs2)c1 [Compound 6, 3-(isopropylsulfonyl)-N-(2-oxo-2-((4-phenylthiazol-2-yl)amino)ethyl)benzamide] | 
14 | 1 to 10 | >90 | 1 to 10 | >60 | CN(C)S(=O)(=O)c1cccc(C(=O)NCC(=O)Nc2nc(-c3cccc(Br)c3)cs2)c1 [Compound 7] | 
15 | 1 to 10 | >90 | > 10 | >70 | CN(C)S(=O)(=O)c1cccc(C(=O)NCC(=O)Nc2nc(-c3cccc(C#N)c3)cs2)c1 [Compound 8, N-[2-[[4-(3-cyanophenyl)thiazol-2-yl]amino]-2-oxo-ethyl]-3-(dimethylsulfamoyl)benzamide] | 
16 | > 10 | >90 | > 10 | >90 | CN(C)S(=O)(=O)c1cccc(C(=O)NCC(=O)Nc2nc(-c3cccc(CN)c3)cs2)c1 [Compound 10, N-[2-[[4-[3-(aminomethyl)phenyl]thiazol-2-yl]amino]-2-oxo-ethyl]-3-(dimethylsulfamoyl)benzamide] | 
17 | 1 to 10 | >80 | > 10 | >70 | CC(=O)NCc1ccc(-c2csc(NC(=O)CNC(=O)c3cccc(S(=O)(=O)N(C)C)c3)n2)cc1 [Compound 11, N-[2-[[4-[4-(acetamidomethyl)phenyl]thiazol-2-yl]amino]-2-oxo-ethyl]-3-(dimethylsulfamoyl)benzamide] | 
18 | 1 to 10 | >80 | > 10 | >60 | CCC[C@H](NC(=O)c1cccc(S(=O)(=O)N(C)C)c1)C(=O)Nc1nc(-c2ccccc2)cs1 [Compound 17, 3-(dimethylsulfamoyl)-N-[(1S)-1-[(4-phenylthiazol-2-yl)carbamoyl]butyl]benzamide] | 
19 | 1 to 10 | >90 |  |  | CSCC[C@H](NC(=O)c1ccc2[nH]ccc2c1)C(=O)Nc1nc(-c2ccccc2)cs1 [Compound 83, (S)—N-(4-(methylthio)-1-oxo-1-((4-phenylthiazol-2-yl)amino)butan-2-yl)-1H-indole-5-carboxamide] | 
20 | 0.1 to 1 |  |  |  | Cc1nnc(-c2cccc(-c3csc(NC(=O)CNC(=O)c4ccc(N)cc4)n3)c2)o1 [Compound 113, 4-amino-N-(2-((4-(3-(5-methyl-1,3,4-oxadiazol-2-yl)phenyl)thiazol-2-yl)amino)-2-oxoethyl)benzamide] | 
21 | < 0.1 |  |  |  | Nc1ccc(C(=O)NCC(=O)Nc2nc(-c3cccc(-c4ccncc4)c3)cs2)cc1 [Compound 117, 4-amino-N-(2-oxo-2-((4-(3-(pyridin-4-yl)phenyl)thiazol-2-yl)amino)ethyl)benzamide] | 
